Experimental data published in patent US20200338144A1, “AGENT FOR PREVENTING OR TREATING SMALL INTESTINAL INJURY INDUCED BY NON-STEROIDAL ANTI-INFLAMMATORY DRUG AND PROTON PUMP INHIBITOR” (priority 2017, published 2020).

Test system: small intestinal injury induced by an NSAID and a PPI
Assay: Test 1: rate of change of hematocrit values in rats given an NSAID and a PPI
Format: in vivo, Wister male rats
Conditions: bacteria 1×10^9 cfu/animal oral once a day
Procedure: Frozen stocks of the following bacterial strains were statically cultured in GAM broth at 37° C. for 24 hours: the Bifidobacterium bifidum G9-1 strain (B. bifidum G9-1) (Accession No. NITE BP-817), the Bifidobacterium longum reference strain JCM 1217^T (B. longum JCM 1217) (purchased from Japan Collection of Microorganisms (JCM), RIKEN BioResource Research Center), the Bifidobacterium infantis reference strain JCM 1222^T (B. infantis JCM 1222) (purchased from JCM), the Bifidobacterium adolescentis reference strain JCM 1275^T (B. adolescentis JCM 1275) (purchased from JCM), and the Bifidobacterium dentium reference strain JCM 1195^T (B. dentium JCM 1195) (purchased from JCM). Each of the bacterial liquid cultures was inoculated into fresh GAM broth at a ratio (by volume) of liquid culture to GAM broth of 1:100, and statically cultured at 37° C. for 24 hours. […]
The centrifuged bacterial cells were suspended in 0.75 mL of physiological saline. […] The colonies appeared on the plates were counted, and the number of viable bacteria was calculated based on the dilution factor. […]
At the start of the experiments, the blood was collected from the tail vein with hematocrit capillary tubes (Thermo Fisher Scientific K.K.) to measure hematocrit values. […] After grouping, the body weight of the animals was measured for nine days, and one of the PPIs (10 mg/kg) was intraperitoneally administered twice a day. […]

## Bifidobacterium longum
Ibuprofen 10 mg/kg oral + lansoprazole 10 mg/kg i.p. twice a day, FIG. 7
  inhibitory effect on small intestinal injury (hematocrit reduction) induced by ibuprofen and lansoprazole: higher inhibitory effect
Ibuprofen 10 mg/kg oral + omeprazole 10 mg/kg i.p. twice a day, FIG. 4 (n=5)
  inhibitory effect on small intestinal injury (hematocrit reduction) induced by ibuprofen and omeprazole: higher inhibitory effect
